Values of other authors, collected in US6403864B1, “Precursor polypeptide of a plant growth factor, a gene encoding a precursor polypeptide of a plant growth factor and a method for promotion of plant growth” (Nagoya University, priority 1999, dated 2002).
Where no end group is shown, it is not given here. [ ]: non-standard residue; d: D form. sY = N[C@@H](Cc1ccc(OS(=O)(=O)O)cc1)C(=O)O

Tested on: plant cell
Settings: compared with PSK-α

For [sY]I[sY]T [PSK-β], the “Cell proliferation activity relative to PSK-α” value is listed as “less than one-tenth”.
